20 compounds from patent US12318403B2, “2′3′-cyclic dinucleotides and prodrugs thereof” (INSTITUTE OF ORGANIC CHEMISTRY AND BIOCHEMISTRY ASCR, V.V.I., priority 2019, dated 2025) can be followed below.

The target of experiment [1] is human wild type STING (WT STING) (Homo sapiens, UniProt Q86WV6, H232R). As to the kind of experiment: 293T WT STING standard reporter assay. The class given is cell-based. To be noted: standard reporter assay without digitonin, 7 hours, ISRE firefly luciferase. A general note: Reporter assays use an easily measured gene product as a stand-in for the process of interest.
Chain of human wild type STING (WT STING) (Q86WV6 whole entry H232R): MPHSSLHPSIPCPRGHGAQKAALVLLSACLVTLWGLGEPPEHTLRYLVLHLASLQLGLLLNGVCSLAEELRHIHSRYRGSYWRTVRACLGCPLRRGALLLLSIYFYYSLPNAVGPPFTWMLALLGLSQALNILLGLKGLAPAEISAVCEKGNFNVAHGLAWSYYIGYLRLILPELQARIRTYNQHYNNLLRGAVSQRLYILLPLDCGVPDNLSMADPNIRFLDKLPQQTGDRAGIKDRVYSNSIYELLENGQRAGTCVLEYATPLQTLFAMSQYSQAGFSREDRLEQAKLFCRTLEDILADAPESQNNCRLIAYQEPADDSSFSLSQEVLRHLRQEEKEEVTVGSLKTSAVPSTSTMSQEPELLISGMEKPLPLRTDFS

Experiment [2] deals with peripheral blood mononuclear cell (PBMC). Briefly: Peripheral blood mononuclear cell assay. Particulars: compounds 1h, washed, 15 hour incubation, average of one to four donors.
Method: Selected compounds were tested in an in vitro peripheral blood mononuclear cell (PBMC) assay. […] Serially diluted tested compounds were added to wells in 50 μl of cultivation medium and cells were incubated with the compounds for 1h at 37° C. with 5% CO2. Plates with cells were then spun 500 g for 5 minutes and the medium was removed. Cells were washed twice with the cell culture medium by the use of centrifugation and gently resuspended in 100 μl medium without compounds. After 15 hour incubation at 37° C. with 5% CO2, the cell culture medium was collected and the levels of interferon-alpha (INF-α), interferon-gamma (INF-γ) and tumor necrosis factor-alpha (TNF-α) were determined with ProcartaPlex Assays (ThermoFisher, Waltham, USA) and MAGPIX System (Merck KGaA, Darmstadt, Germany). […] Values reported are an average of runs from one to four donors.
Where [3] appears, read: 293T WT STING EC50, 293T wtSTING-FL cells.
Where [4] appears, read: read-out: PBMC EC50 IFN-α, interferon-alpha level in medium.
Setting [5] is: read-out: PBMC EC50 IFN-γ, interferon-gamma level in medium.
Setting [6] is: read-out: PBMC EC50 TNF-α, tumor necrosis factor-alpha level in medium.

Each structure is given as a SMILES string. Like-named read-outs stand apart in the source and are kept apart here.

A word on the EC50: it is the concentration at which the effect is half-maximal. `CCCC(=O)Oc1ccc(CSP2(=O)CO[C@H]3[C@@H](F)[C@H](n4cnc5c(N)ncnc54)O[C@@H]3COP(=O)(O)O[C@@H]3[C@H](F)[C@@H](CO2)O[C@H]3n2cnc3c(=O)[nH]c(N)nc32)cc1` (single isomer, unassigned) [Compound 48a] showed an EC50 in experiment [1] (setting [3]) of 5600 nM.

On to `CC(C)(C)C(=O)OCOP1(=O)CO[C@H]2[C@@H](F)[C@H](n3cnc4c(N)ncnc43)O[C@@H]2COP(=O)(OCOC(=O)C(C)(C)C)O[C@@H]2[C@H](F)[C@@H](CO1)O[C@H]2n1cnc2c(N)ncnc21` (single isomer, unassigned) [Compound 81c], for which, in experiment [1] (293T wtSTING-FL cells, read-out: 293T WT STING EC50), the EC50 amounted to 140 nM.

In experiment [1] (setting [3]), `CCCCCCCC(=O)Oc1ccc(CSP2(=O)CO[C@H]3[C@@H](F)[C@H](n4cnc5c(N)ncnc54)O[C@@H]3COP(=O)(O)O[C@@H]3[C@H](F)[C@@H](CO2)O[C@H]3n2cnc3c(=O)[nH]c(N)nc32)cc1` (single isomer, unassigned) [Compound 45b] came in with an EC50 of 150 nM.

With `CCCCCCCCCCCCCCCC(=O)OCSP1(=O)OC[C@H]2O[C@@H](n3cnc4c(N)ncnc43)[C@H](F)[C@@H]2OCP(=O)(O)OC[C@H]2O[C@@H](n3cnc4c(=O)[nH]cnc43)[C@H](O1)[C@@H]2F` (single isomer, unassigned) [Compound 64b], the EC50 is 1400 nM in experiment [2] (setting [4]), 800 nM in experiment [2] (setting [5]) and 2000 nM in experiment [2] (setting [6]).

Consider `CCCCCCCCCCCCCCCC(=O)OCSP1(=O)OC[C@H]2O[C@@H](n3cnc4c(N)ncnc43)[C@H](F)[C@@H]2OCP(=O)(O)OC[C@H]2O[C@@H](n3cnc4c(=O)[nH]cnc43)[C@H](O1)[C@@H]2F` (single isomer, unassigned) [Compound 64a], for which the EC50 amounted to 600 nM in experiment [2] (setting [4]), 2600 nM in experiment [2] (setting [5]) and 400 nM in experiment [2] (setting [6]).

For the compound `CCCCCCCCCCCC(=O)OCSP1(=O)OC[C@H]2O[C@@H](n3cnc4c(N)ncnc43)[C@H](F)[C@@H]2OCP(=O)(O)OC[C@H]2O[C@@H](n3cnc4c(=O)[nH]c(N)nc43)[C@H](O1)[C@@H]2F` (single isomer, unassigned) [Compound 57b], the EC50 turned out to be 1700 nM in experiment [2] (setting [4]), 2500 nM in experiment [2] (setting [5]) and 1600 nM in experiment [2] (setting [6]).

Consider `CCCCCCCCCC(=O)Oc1ccc(CSP2(=O)OC[C@H]3O[C@@H](n4cnc5c(N)ncnc54)[C@H](F)[C@@H]3OCP(=O)(O)OC[C@H]3O[C@@H](n4cnc5c(=O)[nH]c(N)nc54)[C@H](O2)[C@@H]3F)cc1` (single isomer, unassigned) [Compound 35a], for which the EC50 in experiment [2] (setting [4]) was found to be 2600 nM; in experiment [2] (setting [5]) it was 3200 nM; in experiment [2] (setting [6]), 1900 nM.

`CC(C)(C)C(=O)OCOc1ccc(CSP2(=O)OC[C@H]3O[C@@H](n4cnc5c(N)ncnc54)[C@H](F)[C@@H]3OCP(=O)(O)OC[C@H]3O[C@@H](n4cnc5c(=O)[nH]c(N)nc54)[C@H](O2)[C@@H]3F)cc1` (single isomer, unassigned) [Compound 39b]: the EC50 in experiment [2] (setting [4]) worked out at 900 nM; in experiment [2] (setting [5]) it was 1400 nM; in experiment [2] (setting [6]) it was 1000 nM.

With `CCCCCCCCCCCC(=O)Oc1ccc(CSP2(=O)OC[C@H]3O[C@@H](n4cnc5c(N)ncnc54)[C@H](F)[C@@H]3OCP(=O)(O)OC[C@H]3O[C@@H](n4cnc5c(=O)[nH]c(N)nc54)[C@H](O2)[C@@H]3F)cc1` (single isomer, unassigned) [Compound 38a], the EC50 in experiment [2] (setting [4]) was 1400 nM; in experiment [2] (setting [5]), 2600 nM; in experiment [2] (setting [6]), 1400 nM.

In the case of `CCCCCCCCCCCCCCOC(=O)OCSP1(=O)OC[C@H]2O[C@@H](n3cnc4c(N)ncnc43)[C@H](F)[C@@H]2OCP(=O)(O)OC[C@H]2O[C@@H](n3cnc4c(=O)[nH]cnc43)[C@H](O1)[C@@H]2F` (stereo partly drawn) [Compound 72b, {[(1S,6R,8R,9R,10R,16R,18R,19R)-8-(6-amino-9H-purin-9-yl)-9,19-difluoro-13-hydroxy-3,13-dioxo-18-(6-oxo-6,9-dihydro-1H-purin-9-yl)-2,4,7,11,14,17-hexaoxa-3λ^5,13λ^5-diphosphatricyclo[14.2.1.0^6,10]nonadecan-3-yl]sulfanyl}methyl tetradecyl carbonate], the results for the EC50 in experiment [2] (setting [4]), in experiment [2] (setting [5]) and in experiment [2] (setting [6]) were 1700 nM, 800 nM and 1600 nM, respectively.

In the case of `CCCCCCCCCCCC(=O)OCSP1(=O)OC[C@H]2O[C@@H](n3cnc4c(N)ncnc43)[C@H](F)[C@@H]2OCP(=O)(O)OC[C@H]2O[C@@H](n3cnc4c(=O)[nH]cnc43)[C@H](O1)[C@@H]2F` (single isomer, unassigned) [Compound 56b], the EC50 in experiment [2] (setting [4]) stood at 3000 nM; in experiment [2] (setting [5]), 1300 nM; in experiment [2] (setting [6]), 2000 nM.

Regarding `CCCCCCCC(=O)OCSP1(=O)OC[C@H]2O[C@@H](n3cnc4c(N)ncnc43)[C@H](F)[C@@H]2OCP(=O)(O)OC[C@H]2O[C@@H](n3cnc4c(=O)[nH]cnc43)[C@H](O1)[C@@H]2F` (stereo partly drawn) [Compound 63b, {[(1S,6R,8R,9R,10R,16R,18R,19R)-8-(6-amino-9H-purin-9-yl)-9,19-difluoro-13-hydroxy-3,13-dioxo-18-(6-oxo-6,9-dihydro-1H-purin-9-yl)-2,4,7,11,14,17-hexaoxa-3λ^5,13λ^5-diphosphatricyclo[14.2.1.0^6,10]nonadecan-3-yl]sulfanyl}methyl octanoate], the EC50 was 9000 nM in experiment [2] (setting [4]), 3700 nM in experiment [2] (setting [5]) and 8000 nM in experiment [2] (setting [6]).

For the compound `CCCCCCCCCCCCCCCCOC(=O)OCSP1(=O)OC[C@H]2O[C@@H](n3cnc4c(N)ncnc43)[C@H](F)[C@@H]2OCP(=O)(O)OC[C@H]2O[C@@H](n3cnc4c(=O)[nH]cnc43)[C@H](O1)[C@@H]2F` (stereo partly drawn) [Compound 73b, {[(1S,6R,8R,9R,10R,16R,18R,19R)-8-(6-amino-9H-purin-9-yl)-9,19-difluoro-13-hydroxy-3,13-dioxo-18-(6-oxo-6,9-dihydro-1H-purin-9-yl)-2,4,7,11,14,17-hexaoxa-3λ^5,13λ^5-diphosphatricyclo[14.2.1.0^6,10]nonadecan-3-yl]sulfanyl}methyl hexadecyl carbonate], the EC50 in experiment [2] (setting [4]) turned out to be 3000 nM; in experiment [2] (setting [5]), 7000 nM; in experiment [2] (setting [6]), 4000 nM.

`CCCCCCCCCCCCOC(=O)OCSP1(=O)OC[C@H]2O[C@@H](n3cnc4c(N)ncnc43)[C@H](F)[C@@H]2OCP(=O)(O)OC[C@H]2O[C@@H](n3cnc4c(=O)[nH]c(N)nc43)[C@H](O1)[C@@H]2F` (stereo partly drawn) [Compound 59b, {[(1S,6R,8R,9R,10R,16R,18R,19R)-18-(2-amino-6-oxo-6,9-dihydro-1H-purin-9-yl)-8-(6-amino-9H-purin-9-yl)-9,19-difluoro-13-hydroxy-3,13-dioxo-2,4,7,11,14,17-hexaoxa-3λ^5,13λ^5-diphosphatricyclo[14.2.1.0^6,10]nonadecan-3-yl]sulfanyl}methyl dodecyl carbonate]: the EC50 in experiment [2] (setting [4]) is 1800 nM; in experiment [2] (setting [5]) it was 2200 nM; in experiment [2] (setting [6]), 2100 nM.

`Nc1nc2c(ncn2[C@@H]2O[C@@H]3COP(=O)(O)O[C@H]4[C@@H](O)[C@H](n5cnc6c(N)ncnc65)O[C@@H]4COP(=O)(O)O[C@@H]2[C@@H]3O)c(=O)[nH]1` [2′3′-cGAMP, c[G(2′,5′)pA(3′,5′)p], reference compound]: the EC50 was 300000 nM in experiment [2] (setting [4]), 164000 nM in experiment [2] (setting [5]) and 210000 nM in experiment [2] (setting [6]).

In the case of `CCCCCCCCCCCC(=O)OCSP1(=O)OC[C@H]2O[C@@H](n3cnc4c(N)ncnc43)[C@H](F)[C@@H]2OCP(=O)(O)OC[C@H]2O[C@@H](n3cnc4c(=O)[nH]cnc43)[C@H](O1)[C@@H]2F` (single isomer, unassigned) [Compound 56a], the EC50 in experiment [2] (setting [4]) was determined as 1600 nM; in experiment [2] (setting [5]) it was 2200 nM; in experiment [2] (setting [6]), 1800 nM.

For the compound `CCCCCCCCCCCCCC(=O)OCSP1(=O)OC[C@H]2O[C@@H](n3cnc4c(N)ncnc43)[C@H](F)[C@@H]2OCP(=O)(O)OC[C@H]2O[C@@H](n3cnc4c(=O)[nH]cnc43)[C@H](O1)[C@@H]2F` (single isomer, unassigned) [Compound 68a], the EC50 was found to be 900 nM in experiment [2] (setting [4]), 1000 nM in experiment [2] (setting [5]) and 600 nM in experiment [2] (setting [6]).

As for `CCCCCC(=O)Oc1ccc(C(=O)Oc2ccc(CSP3(=O)OC[C@H]4O[C@@H](n5cnc6c(N)ncnc65)[C@H](F)[C@@H]4OCP(=O)(O)OC[C@H]4O[C@@H](n5cnc6c(=O)[nH]c(N)nc65)[C@H](O3)[C@@H]4F)cc2)cc1` (single isomer, unassigned) [Compound 40b], the EC50 in experiment [2] (setting [4]) is 8100 nM; in experiment [2] (setting [5]), 10400 nM; in experiment [2] (setting [6]), 10400 nM.

Turning to `CCCCCCCCCCCCCCCCCCOC(=O)OCSP1(=O)OC[C@H]2O[C@@H](n3cnc4c(N)ncnc43)[C@H](F)[C@@H]2OCP(=O)(O)OC[C@H]2O[C@@H](n3cnc4c(=O)[nH]cnc43)[C@H](O1)[C@@H]2F` (stereo partly drawn) [Compound 74b, {[(1S,6R,8R,9R,10R,16R,18R,19R)-8-(6-amino-9H-purin-9-yl)-9,19-difluoro-13-hydroxy-3,13-dioxo-18-(6-oxo-6,9-dihydro-1H-purin-9-yl)-2,4,7,11,14,17-hexaoxa-3λ^5,13λ^5-diphosphatricyclo[14.2.1.0^6,10]nonadecan-3-yl]sulfanyl}methyl octadecyl carbonate], the EC50 in experiment [2] (setting [4]) was determined as 2200 nM; in experiment [2] (setting [5]), 2400 nM; in experiment [2] (setting [6]), 3000 nM.

As to `CCCCCCCCCCCCOC(=O)OCSP1(=O)OC[C@H]2O[C@@H](n3cnc4c(N)ncnc43)[C@H](F)[C@@H]2OCP(=O)(O)OC[C@H]2O[C@@H](n3cnc4c(=O)[nH]cnc43)[C@H](O1)[C@@H]2F` (stereo partly drawn) [Compound 58b, {[(1S,6R,8R,9R,10R,16R,18R,19R)-8-(6-amino-9H-purin-9-yl)-9,19-difluoro-13-hydroxy-3,13-dioxo-18-(6-oxo-6,9-dihydro-1H-purin-9-yl)-2,4,7,11,14,17-hexaoxa-3λ^5,13λ^5-diphosphatricyclo[14.2.1.0^6,10]nonadecan-3-yl]sulfanyl}methyl dodecyl carbonate], the EC50 in experiment [2] (setting [4]) was determined as 1200 nM; in experiment [2] (setting [5]), 1900 nM; in experiment [2] (setting [6]), 1300 nM.
